According to PubChem BioAssay AID256 (DTP/NCI, 2004):
Several values for one entry are separate records, joined by “and”; a condition that tells them apart may be missing. Equal entries are not always repeated. Inconclusive results and toxic doses are left out. How the source made its calls: active means survival T/C of 150% or more; inactive means T/C below 125% in these data.

Test system: CD2F1 mice, L1210 leukemia ip, survival T/C
Test: NCI In Vivo Anticancer Drug Screen. Data for tumor model L1210 Leukemia (intraperitoneal) in CD2F1 (CDF1) mice
Conditions: endpoint: mean survival time, higher = longer survival
Method in brief: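 Antitumor effect is scored in animals hosting a serially transplanted tumor. Values compare compound-dosed animals against vehicle-only controls as a simple quotient.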

[1] = dose: 100.0 mg/kg/injection, schedule: Q04DX003 (ip), vehicle: saline with Tween-80
[2] = dose: 200.0 mg/kg/injection, schedule: Q04DX003 (ip), vehicle: saline with Tween-80
[3] = dose: 400.0 mg/kg/injection, schedule: Q04DX003 (ip), vehicle: saline with Tween-80

Measured: T/C

CCC(c1ccc(OC(=O)Cc2ccc(N(CCCl)CCCl)cc2)cc1)C(CC)c1ccc(OC(=O)Cc2ccc(N(CCCl)CCCl)cc2)cc1 (stereo not drawn)
inactive: dose: 3.1 mg/kg/injection, schedule: Q03HX016 (ip), vehicle: saline with Tween-80 94 % of control | dose: 3.1 mg/kg/injection, schedule: Q03HX024 (ip), vehicle: saline with Tween-80 100 % of control | dose: 6.3 mg/kg/injection, schedule: Q03HX008 (ip), vehicle: saline with Tween-80 88 % of control | dose: 6.3 mg/kg/injection, schedule: Q03HX024 (ip), vehicle: saline with Tween-80 91 % of control | dose: 12.5 mg/kg/injection, schedule: Q01DX009 (ip), vehicle: saline with Tween-80 88 % of control | dose: 12.5 mg/kg/injection, schedule: Q01DX009 (sc), vehicle: saline with Tween-80 100 % of control | dose: 12.5 mg/kg/injection, schedule: Q03HX024 (ip), vehicle: saline with Tween-80 88 % of control | dose: 25.0 mg/kg/injection, schedule: Q01DX001 (ip), vehicle: saline with Tween-80 94 % of control | dose: 25.0 mg/kg/injection, schedule: Q01DX001 (oral), vehicle: saline with Tween-80 103 % of control | dose: 25.0 mg/kg/injection, schedule: Q01DX001 (sc), vehicle: saline with Tween-80 91 % of control | dose: 25.0 mg/kg/injection, schedule: Q01DX009 (ip), vehicle: saline with Tween-80 90 % of control | dose: 25.0 mg/kg/injection, schedule: Q01DX009 (oral), vehicle: saline with Tween-80 114 % of control | dose: 25.0 mg/kg/injection, schedule: Q01DX009 (sc), vehicle: saline with Tween-80 100 % of control | dose: 25.0 mg/kg/injection, schedule: Q03HX024 (ip), vehicle: saline with Tween-80 88 % of control | dose: 25.0 mg/kg/injection, schedule: Q04DX003 (ip), vehicle: saline with Tween-80 91 % of control | dose: 25.0 mg/kg/injection, schedule: Q08DX002 (ip), vehicle: saline with Tween-80 88 % of control | dose: 50.0 mg/kg/injection, schedule: Q01DX001 (oral), vehicle: saline with Tween-80 105 % of control | dose: 50.0 mg/kg/injection, schedule: Q01DX001 (sc), vehicle: saline with Tween-80 88 % of control | dose: 50.0 mg/kg/injection, schedule: Q01DX009 (ip), vehicle: saline with Tween-80 88 % of control | dose: 50.0 mg/kg/injection, schedule: Q01DX009 (oral), vehicle: saline with Tween-80 94 % of control | dose: 50.0 mg/kg/injection, schedule: Q01DX009 (sc), vehicle: saline with Tween-80 97 % of control | dose: 50.0 mg/kg/injection, schedule: Q03HX016 (ip), vehicle: saline with Tween-80 88 % of control | dose: 50.0 mg/kg/injection, schedule: Q03HX024 (ip), vehicle: saline with Tween-80 88 % of control | dose: 50.0 mg/kg/injection, schedule: Q04DX003 (ip), vehicle: saline with Tween-80 88 % of control | dose: 50.0 mg/kg/injection, schedule: Q08DX002 (ip), vehicle: saline with Tween-80 90 % of control | dose: 80.0 mg/kg/injection, schedule: Q01DX005 (ip), vehicle: saline with Tween-80 96 % of control | dose: 80.0 mg/kg/injection, schedule: Q01DX009 (ip), vehicle: saline with Tween-80 93 % of control | dose: 100.0 mg/kg/injection, schedule: Q01DX001 (ip), vehicle: saline with Tween-80 90 % of control and 95 % of control | dose: 100.0 mg/kg/injection, schedule: Q01DX001 (oral), vehicle: saline with Tween-80 105 % of control | dose: 100.0 mg/kg/injection, schedule: Q01DX001 (sc), vehicle: saline with Tween-80 102 % of control | dose: 100.0 mg/kg/injection, schedule: Q01DX009 (ip), vehicle: saline with Tween-80 90 % of control | dose: 100.0 mg/kg/injection, schedule: Q01DX009 (oral), vehicle: saline with Tween-80 101 % of control | dose: 100.0 mg/kg/injection, schedule: Q01DX009 (sc), vehicle: saline with Tween-80 100 % of control | dose: 100.0 mg/kg/injection, schedule: Q04DX002 (ip), vehicle: saline with Tween-80 101 % of control | [1] 90 % of control | dose: 100.0 mg/kg/injection, schedule: Q08DX002 (ip), vehicle: saline with Tween-80 90 % of control | dose: 120.0 mg/kg/injection, schedule: Q01DX005 (ip), vehicle: saline with Tween-80 96 % of control | dose: 120.0 mg/kg/injection, schedule: Q01DX009 (ip), vehicle: saline with Tween-80 93 % of control | dose: 180.0 mg/kg/injection, schedule: Q01DX005 (ip), vehicle: saline with Tween-80 92 % of control | dose: 180.0 mg/kg/injection, schedule: Q01DX009 (ip), vehicle: saline with Tween-80 92 % of control | dose: 200.0 mg/kg/injection, schedule: Q01DX001 (ip), vehicle: saline with Tween-80 90 % of control | dose: 200.0 mg/kg/injection, schedule: Q01DX001 (oral), vehicle: saline with Tween-80 102 % of control | dose: 200.0 mg/kg/injection, schedule: Q01DX001 (sc), vehicle: saline with Tween-80 97 % of control | dose: 200.0 mg/kg/injection, schedule: Q01DX009 (ip), vehicle: saline with Tween-80 88 % of control | dose: 200.0 mg/kg/injection, schedule: Q01DX009 (oral), vehicle: saline with Tween-80 100 % of control | dose: 200.0 mg/kg/injection, schedule: Q01DX009 (sc), vehicle: saline with Tween-80 97 % of control | dose: 200.0 mg/kg/injection, schedule: Q04DX002 (ip), vehicle: saline with Tween-80 93 % of control | [2] 90 % of control | dose: 200.0 mg/kg/injection, schedule: Q08DX002 (ip), vehicle: saline with Tween-80 87 % of control | dose: 270.0 mg/kg/injection, schedule: Q01DX005 (ip), vehicle: saline with Tween-80 96 % of control | dose: 270.0 mg/kg/injection, schedule: Q01DX009 (ip), vehicle: saline with Tween-80 90 % of control | dose: 400.0 mg/kg/injection, schedule: Q01DX001 (ip), vehicle: saline with Tween-80 90 % of control | dose: 400.0 mg/kg/injection, schedule: Q01DX001 (oral), vehicle: saline with Tween-80 103 % of control | dose: 400.0 mg/kg/injection, schedule: Q01DX001 (sc), vehicle: saline with Tween-80 97 % of control | dose: 400.0 mg/kg/injection, schedule: Q01DX009 (oral), vehicle: saline with Tween-80 96 % of control | dose: 400.0 mg/kg/injection, schedule: Q04DX002 (ip), vehicle: saline with Tween-80 93 % of control | dose: 400.0 mg/kg/injection, schedule: Q08DX002 (ip), vehicle: saline with Tween-80 90 % of control | dose: 405.0 mg/kg/injection, schedule: Q01DX005 (ip), vehicle: saline with Tween-80 93 % of control | dose: 405.0 mg/kg/injection, schedule: Q01DX009 (ip), vehicle: saline with Tween-80 92 % of control | dose: 800.0 mg/kg/injection, schedule: Q01DX001 (ip), vehicle: saline with Tween-80 88 % of control and 90 % of control | dose: 800.0 mg/kg/injection, schedule: Q01DX001 (oral), vehicle: saline with Tween-80 97 % of control | dose: 800.0 mg/kg/injection, schedule: Q01DX001 (sc), vehicle: saline with Tween-80 90 % of control

O=C(Oc1ccc(OC(=O)c2ccccc2)c([N+](=O)[O-])c1)c1ccccc1
inactive: dose: 75.0 mg/kg/injection, schedule: Q01DX001 (ip), vehicle: saline 89 % of control | dose: 150.0 mg/kg/injection, schedule: Q01DX001 (ip), vehicle: saline 98 % of control | dose: 300.0 mg/kg/injection, schedule: Q01DX001 (ip), vehicle: saline 98 % of control

COC(=O)C#CBr
inactive: dose: 6.25 mg/kg/injection, schedule: Q04DX003 (ip), vehicle: other 103 % of control | dose: 12.5 mg/kg/injection, schedule: Q04DX003 (ip), vehicle: other 96 % of control

CCCCCCCCCCCCCCCC(=O)N(CCCN)c1ccc(N(CCCN)C(=O)CCCCCCCCCCCCCCC)cc1
inactive: [1] 98 % of control | [2] 98 % of control | [3] 97 % of control

CC(O)/C=C/c1ccccc1O (stereo not drawn)
inactive: [1] 90 % of control | [2] 96 % of control | [3] 93 % of control
